Experiments:
osteoporotic model mice [1] = test: μCT three-dimensional trabecular structure analysis of femoral distal epiphyses; type: in vivo, mouse; details: for Conclusion of 3-D image analysis: effects on bone density and trabecular structure: OVX mice, distal epiphyses and diaphyses, FIGS. 8 and 9; for Order according to the importance of the effects on improvement of trabecular bone structure: ranked after sham and risedronate groups
Procedure: (§1) For study ICR female model mice of 10 weeks (of 20 g) were used. These mice underwent ovariectomy (OVX control group) and sham operation (sham operated group), and were subsequently fed with a conventional diet for 2 months, and then divided into 6 groups, each group having 10 mice. Of these, an OVX control group and a sham operated group were fed with 1.5 to 1.8% calcium containing feed which contained calcium carbonate as a calcium source. Further as a reference group, one group was treated with a bisphosphonate preparation (risedronate), which is an anti-osteoporotic agent showing obviously higher bone density. Remaining 3 groups were fed with special feeds, containing foodstuff and food additives. Combinations of foodstuff and food additives used in the present study are shown below in Table 4.
(§2) After being fed these feeds for 2 months, mice were decapitated for blood collection. Then serum was separated from the collected blood, and after that calcium, phosphorus, and magnesium concentrations and alkaline phosphatase level of the serum were determined. Furthermore, after a resection of femurs, a three-dimensional bone densitometry and bone structure analysis were conducted on the femoral distal epiphyses and diaphyses, using pQCT (Peripheral Quantitative Computed Tomography) and μCT (micro focus X-ray CT).
For an analysis of the trabecular structure, three-dimensional image data of femoral distal epiphyses were acquired using X-ray μCT (MCT-CB130F, Hitachi Medico), of 8×8 μm focus, with micro focus X-ray tube. As conditions for imaging, tube voltage was 40 kV, tube current 100 μA, and voxel size 17.8×17.8×17.8 μm, so that 50 volume data for each were acquired. Three-dimensional images were reconstructed based on the acquired 50 two-dimensional images of a trabecular bone and a cortical bone. 3D parameters were then determined on these 3D images using trabecular structure measuring software (TRI/3D-BON; RATOC System Engineering, Co., Ltd). The determined structural parameters are listed below in Table 5.
Student's t-test was used for statistical treatment for comparison between the groups. Only the parameters showing significant difference in the OVX control group are compared to those in the remaining groups.

osteoporotic model mice [2] = test: pQCT three-dimensional bone densitometry of femoral distal epiphyses and diaphyses; type: in vivo, mouse; details: for Items showing a significant difference: number of the 14 pQCT parameters (epiphyses and diaphyses) differing significantly from OVX control group; for Epiphyses Bone Density, significant difference vs OVX control group / Epiphyses Cortical Bone Cross-Section, significant difference vs OVX control group / Epiphyses Cortical Bone Thickness, significant difference vs OVX control group / Epiphyses Trabecular Bone Density, significant difference vs OVX control group: femoral distal epiphyses
Procedure: as §1, §2
Subsequently, a bone mass density (mg/cm^3) as a physical quantity was analyzed separately for trabecular bones and cortical bones based on three-dimensional bone densitometry conducted using pQCT on the femoral distal epiphyses and diaphyses and cross-sectional images acquired in pQCT, and bone strength index was identified based on cortical bone width, second moment of area, and section modulus etc. Student's t-test was used for statistical treatment for comparison between the groups.

osteoporotic model mice [3] = test: Mineral concentration and ALP activity in mouse sera; type: in vivo; details: ovariectomized ICR female mice, fed test feeds for 2 months (doses Table 4)
Procedure: as §1, §2
Subsequently, blood was collected from the tested mice of each group, and mineral concentration and ALP activity in serum were determined. Blood collection was conducted by decapitating under a twilight sleep. The collected blood stood for 1 hour at ice temperature, and thereafter the serum was separated by a centrifuge for 10 minutes at 1000 rpm. Calcium amount was determined by chelete coloring method. 50 μL of serum was added to 5 mL of a 0.88 M monoethanolamine buffer adjusted to pH=11, and a mixture of o-cresol-phthalein complexone and 8-quinolinol as a coloring agent was further added. The resulting mixture was sufficiently stirred and stood for 5 minutes, and thereafter absorbance at 570 nm determined using a spectrometer. Phosphorus was determined by direct molybdenum blue method. After 0.2 mL of serum was added to 5 mL of a coloring agent and the resulting mixture stood for 15 minutes at room temperature, absorbance at 690 nm was determined using a spectrometer. The coloring agent was prepared by adding a surfactant to a mixture of ammonium molybdate, ammonium ferrous sulfate and sulfate. Magnesium was determined by xylidyl blue method. 3 mL of a coloring agent was added to 20 μL of serum and the resulting mixture stood for 10 minutes at room temperature, and thereafter absorbance at 520 nm was determined using a spectrometer. The coloring agent was prepared by adding a surfactant to a mixture of xylylazo violet I and ethylene glycol tetraacetic acid.
Alkaline phosphatase was determined by phenyl phosphoric acid substrate method. After 50 μL of serum was added to 2 mL of a substrate buffer and heated at 37° C. for 15 minutes, 2 mL of 36 mM potassium ferricyanide. The resulting mixture was sufficiently stirred, and thereafter absorbance at 570 nm was determined using a spectrometer. The substrate buffer was prepared by adding a mixture of 4-aminoantipyrine and phenylphosphoric acid to 50 mM carbonate buffer adjusted to pH=10.5.
In all of these determinations assay kits for clinical and biochemical use manufactured by Wako Pure Chemicals, Co., Ltd. were used.

[4] = pQCT, femoral diaphyses, p value, Student's t-test, 2 months feeding
[5] = pQCT, femoral diaphyses, p value, Student's t-test, 2 months feeding, listed as risedronate
[6] = pQCT, p value, Student's t-test, 2 months feeding
[7] = pQCT, p value, Student's t-test, 2 months feeding, listed as risedronate

Structure (SMILES) | Items showing a significant difference (osteoporotic model mice [2]) | ALP activity in serum (osteoporotic model mice [3]) | Ca in serum (osteoporotic model mice [3]) | Mg in serum (osteoporotic model mice [3]) | P in serum (osteoporotic model mice [3]) | Conclusion of 3-D image analysis: effects on bone density and trabecular structure (osteoporotic model mice [1]) | Order according to the importance of the effects on improvement of trabecular bone structure (osteoporotic model mice [1]; μCT, femoral distal epiphyses) | also measured
O=P(O)(O)C(O)(Cc1cccnc1)P(=O)(O)O [Risedronate, risedronate] | 6 | 3.65 ± 1.26 BL unit | 9.02 ± 1.15 mg/dL | 3.12 ± 1.21 mg/dL | 6.95 ± 0.32 mg/dL |  |  | Number of parameters with significant effects on improvement of trabecular bone structure (osteoporotic model mice [1]; μCT, femoral distal epiphyses, vs OVX control group (Table 9)): 12; Diaphyses Cortical Bone Cross-Section, significant difference vs OVX control group (osteoporotic model mice [2]; [4]): p < 0.05; Diaphyses Cortical Bone Thickness, significant difference vs OVX control group (osteoporotic model mice [2]; [4]): p < 0.05; Diaphyses Cortical Bone Cross-Section, significant difference vs OVX control group (osteoporotic model mice [2]; [5]): significant increase; Diaphyses Cortical Bone Thickness, significant difference vs OVX control group (osteoporotic model mice [2]; [5]): significant increase; Epiphyses Bone Density, significant difference vs OVX control group (osteoporotic model mice [2]; [6]): p < 0.01; Epiphyses Cortical Bone Cross-Section, significant difference vs OVX control group (osteoporotic model mice [2]; [6]): p < 0.05; Epiphyses Cortical Bone Thickness, significant difference vs OVX control group (osteoporotic model mice [2]; [6]): p < 0.05; Epiphyses Trabecular Bone Density, significant difference vs OVX control group (osteoporotic model mice [2]; [6]): p < 0.05; Epiphyses Bone Density, significant difference vs OVX control group (osteoporotic model mice [2]; [7]): significant increase; Epiphyses Cortical Bone Cross-Section, significant difference vs OVX control group (osteoporotic model mice [2]; [7]): significant increase; Epiphyses Cortical Bone Thickness, significant difference vs OVX control group (osteoporotic model mice [2]; [7]): significant increase; Epiphyses Trabecular Bone Density, significant difference vs OVX control group (osteoporotic model mice [2]; [7]): significant increase
CC(C)=CCC/C(C)=C/CC/C(C)=C/CC/C(C)=C/CC/C(C)=C/CC/C(C)=C/CC/C(C)=C/CC1=C(C)C(=O)c2ccccc2C1=O [MK-7, Vitamin K2 (MK-7)] | 4 | 3.77 ± 1.76 BL unit | 9.34 ± 1.50 mg/dL | 2.63 ± 0.63 mg/dL | 7.12 ± 0.64 mg/dL | both effects on an increased bone density and improved trabecular structure, with the improvement in trabecular structure being prevalent effect | MK7, the composite and MK4 is arranged in this order | Diaphyses parameters, difference vs OVX control group (osteoporotic model mice [2]; pQCT, femoral diaphyses, all parameters): no significant difference
CC(C)=CCC/C(C)=C/CC/C(C)=C/CC/C(C)=C/CC1=C(C)C(=O)c2ccccc2C1=O [MK-4, Vitamin K2 (MK-4)] | 2 | 3.52 ± 1.82 BL unit | 9.60 ± 0.51 mg/dL | 2.67 ± 0.28 mg/dL | 6.96 ± 0.44 mg/dL | improvement in bone internal structure was observed as a prevalent effect | MK7, the composite and MK4 is arranged in this order | Diaphyses Trabecular Bone Density, significant difference vs OVX control group (osteoporotic model mice [2]; [4]): p < 0.05

From patent US20090110748A1, “Biocompatible Material and Process for Manufacturing the Same” (priority 2007, published 2009)
